# Results taken from the OPERA property sets (Mansouri et al. 2018).
# Peptide text beside a SMILES is read from it.
row,SMILES,logP
1,CCCCOC(=O)n1cnc(CC(NC(=O)C2CCC(=O)N2)C(=O)N2CCCC2C(N)=O)c1 (centres undefined),-0.47
2,CC[n+]1cccc2ccccc21.[Br-],-2.76
3,COC(=S)NCCn1c([N+](=O)[O-])cnc1C,1.15
4,COc1ccc(N2C(=O)CCC2=O)cc1,0.15
5,COc1ccc(C=CNC=O)cc1,1.94
6,NS(=O)(=O)c1cccnc1,-0.49
7,FC(F)(Cl)C(F)(Cl)Cl,3.16
8,O=C(CN1CCCCC1)Nc1ccc(I)cc1,3.9
9,CCOP(=S)(OCC)SCSP(=S)(OCC)OCC,5.07
10,COc1ccnc2c([N+](=O)[O-])cccc12,1.92
11,CNC(=O)Oc1cccc(C)c1C,1.95
12,Nc1ccc(N)cc1,-0.3
13,OCc1cccc(Cl)c1,1.94
14,OCC(Br)(Br)Br,2.1
15,NC(=O)c1[nH]cnc1N,-1.1
16,ClC1CC(Cl)C(Cl)C(Cl)C1Cl (centres undefined),3.53
17,CCc1cccc2cccnc12,2.93
18,CNCCO,-0.94
19,COC(=O)c1cccc(O)c1,1.89
20,O=C1c2ccccc2-c2ccccc21,3.58
21,CC(=O)c1cc2ccccc2nn1,1.44
22,CC(O)Cc1ccccc1 (centres undefined),1.97
23,CCN(CC)N=Nc1ccc([N+](=O)[O-])cc1,4.17
24,c1ccc2c(c1)CCCN2,2.29

row,SMILES,logP
1,COc1cc(CCN)cc(OC)c1OC(C)C,1.52
2,COc1cccc(C)c1,2.66
3,CNC(=O)Oc1cc(C)c(SC)c(C)c1,2.92
4,CCCNCc1cccnc1,0.9
5,ICCCI,3.02
6,CCCCCn1cnc2c(NC(C)=O)ncnc21,0.98
7,CCOP(=S)(OCC)N1C(=O)c2ccccc2C1=O,3.48
8,O=C(C=Cc1ccccc1)OCC=Cc1ccccc1,4.45
9,COC(=O)CCCO,-0.06
10,CCC(OC(C)=O)C(CC(C)N(C)C)(c1ccccc1)c1ccccc1 (centres undefined),4.27
11,Cc1cc(C)c(C)c(C)c1C,4.56
12,NC(=O)CF,-1.05
13,O=Cc1ccc2c(c1)OCO2,1.05
14,COCC(c1c(O)c2ccccc2oc1=O)c1c(O)c2ccccc2oc1=O,1.38
15,CCCC[Si](C)(C)C,4.2
16,NCCc1c[nH]c2ccc(O)cc12,0.21
17,CC(=O)NCC(=O)N[C@@H](CC(C)C)C(=O)NCC(N)=O (Ac-Gly-Leu-Gly-NH2),-1.23
18,CC(=O)Oc1ccccc1Br,2.2
19,CCN(CC)C(=O)N(CC)N=O,1.54
20,CCCC(=O)OC1(C(=O)CCl)C(C)CC2C3CCC4=CC(=O)C=CC4(C)C3(F)C(O)CC21C (centres undefined),3.63
21,NC(=O)C(=Cc1cccc(F)c1)C(N)=O,0.1
22,OCCCCCc1ccncc1,1.39
23,FC(F)(F)c1nc2ccccc2[nH]1,2.67
24,Nc1ccc(S(=O)(=O)Nc2cccnc2Cl)cc1,1.58

row,SMILES,logP
1,CN(Cc1ccc(C#N)cc1)N=O,0.95
2,CC1CCCC(C)N1 (centres undefined),1.53
3,N#Cc1cnc2ccccc2c1,1.57
4,c1ccc(-c2cc3ccccn3c2)cc1,4.29
5,O=C(CN1CCCCC1)Nc1cccc(I)c1,3.92
6,CCn1nnc(Oc2ccc(NC(=O)N(C)C)cc2Cl)n1,1.7
7,CCCCCCOCc1cccc(NC(=O)OCCN2CCCCC2)c1,4.97
8,c1ccc2c(c1)Nc1ccccc1S2,4.15
9,CCCCC1CCCc2ncc(C(=O)OC)c(=O)n21 (centres undefined),1.77
10,NC(=O)Nc1cccc(Br)c1,2.08
11,O=C1CCC(=O)N1c1cccc([N+](=O)[O-])c1,0.38
12,Cc1n[nH]c(C(N)=O)c1[N+](=O)[O-],-0.38
13,COC(=O)c1ccccc1N,1.88
14,O=NN(CCCl)C(=O)NC1CCCCC1,2.83
15,N#Cc1c(Cl)cccc1Cl,2.74
16,Clc1cccs1,2.54
17,FC(F)(F)C(F)(F)F,2
18,COCc1ccccc1NC(=O)OCCN1CCCCC1,2.2
19,Clc1ccccc1-c1cccc(Cl)c1Cl,5.31
20,CCS(=O)(=O)c1ccc(S(N)(=O)=O)c2ccccc12,1.24
21,Nc1cc([N+](=O)[O-])cc([N+](=O)[O-])c1,1.89
22,CCN(CC)N=O,0.48
23,Nc1nc(N)nc(-c2ccccc2Br)n1,1.26
24,C/C(=N/Nc1nc(C)cc(C)n1)c1ccccc1C,2.98

row,SMILES,logP
1,Cc1ccnc2ccccc12,2.61
2,Cc1ccc(COC(=O)N(C)C)cc1,2.63
3,Cc1cccc(OCc2ccccc2)n1,3.43
4,CCNc1nc(NC(C)(C)C)nc(SC(F)F)n1,4.57
5,CC(=O)N[C@@H](Cc1ccccc1)C(=O)N[C@H](C(N)=O)C(C)C (Ac-Phe-Val-NH2),0.43
6,O=C(NO)Nc1ccccc1,0.41
7,CC1(c2ccncc2)CCC(=O)NC1=O (centres undefined),0.07
8,Nc1cc(C(F)(F)F)ccc1Cl,3.06
9,O=C1CN=C(c2ccccc2)c2cc([N+](=O)[O-])ccc2N1,2.25
10,Oc1ccc(Cl)c(Cl)c1,3.33
11,CC(C)Nc1nc(Cl)nc(NC(C)C)n1,2.93
12,NNC(=O)c1ccnc(Cl)c1,0.11
13,CN(C)C(N(C)C)=S(I)c1cccc(C#N)c1 (centres undefined),-1.1
14,CCN1CC(C(O)C(CC2CCCCC2)NC(=O)C(Cc2cnc[nH]2)NC(=O)C(CC(=O)N(C)CCO)Cc2ccccc2)OC1=O (centres undefined),1.94
15,O=C(O)c1cc(O)cc(O)c1,0.86
16,CC(=O)N[C@@H](Cc1ccc(O)cc1)C(=O)N[C@@H](Cc1ccccc1)C(N)=O (Ac-Tyr-Phe-NH2),0.54
17,C[C@]12CCC(=O)C=C1CC[C@@H]1[C@@H]2[C@@H](O)C[C@@]2(C)[C@H]1CC[C@]2(O)C(=O)CO,1.61
18,COC(=O)c1ccccc1S(I)=C(N(C)C)N(C)C (centres undefined),-0.7
19,O=C(O)COc1ccc(O)cc1,0.65
20,CCNC(=O)CBr,0.34
21,O=C(N/N=C/c1cc[nH]c1)Nc1ccccc1,2.96
22,O=CNC(=O)C1CCC1,-0.7
23,C[C@]12CC[C@@H]3c4ccc(O)cc4CC[C@H]3[C@@H]1C[C@@H](O)[C@@H]2O,2.45
24,CN(C)C(=O)N(C)N=O,0.36

row,SMILES,logP
1,Cc1n[nH]c(C(=O)N(C)C2CCCCC2)c1[N+](=O)[O-],1.68
2,Cc1ccc(C(N)=O)cc1,1.18
3,O=C(O)Cc1cccc(Cl)c1,2.09
4,O=NN(CCCl)C(=O)NC1C(O)CCCC1O (centres undefined),0.16
5,CCCN(CCC)N=O,1.36
6,O=C1CCN(c2ccccc2)N1,0.89
7,CCCCNC(=O)c1ccc(S(N)(=O)=O)cc1,1.05
8,N#Cc1ccc2[nH]ccc2c1,2.38
9,CC(=O)[C@H]1CC[C@H]2[C@@H]3CC=C4C[C@@H](O)CC[C@]4(C)[C@H]3CC[C@]12C,4.22
10,CC(=O)c1ccco1,0.52
11,Nc1ccccc1Br,2.11
12,O=C1CC(=O)N(c2ccccc2)N1c1ccccc1,1.45
13,O=C(Oc1ccccc1)c1ccccc1,3.59
14,COC,0.1
15,CCCC(C)(COC(N)=O)COC(N)=O,0.7
16,OCCOc1ccccc1,1.16
17,Nc1nc(N)c2nc(-c3ccccc3)c(N)nc2n1,0.98
18,Oc1c(F)cc(Cn2cc[nH]c2=S)cc1F,1.08
19,CCCC(=O)OC,1.29
20,CCOCC1CO1 (centres undefined),0.36
21,O=C1C=CC(=O)N1c1ccccc1,1.09
22,CCCCCCOC(=O)c1cc(O)c(O)c(O)c1,3.17
23,CNC,-0.38
24,CN(C)c1cccnc1,1.41

row,SMILES,logP
1,O=C(Cn1c(=O)sc2ccc(Cl)cc21)N1CCNCC1,1.35
2,CCC(C)=O,0.29
3,CCC1(CC)C(=O)NC(=O)NC1=O,0.65
4,CC(=O)OC(OC(C)=O)c1ccccc1,1.62
5,CCC(=O)Nc1ccc(Cl)c(Cl)c1,3.07
6,Nc1ccc(S(=O)(=O)Nc2ncccn2)cc1,-0.09
7,Clc1cccc(-c2ccccc2Cl)c1,5.02
8,CN(C)C(N(C)C)=S(I)c1c(Cl)cc(Cl)cc1Cl (centres undefined),0.05
9,C=CC(=O)OCC(C)C,2.22
10,CC(=O)OC1(C(=O)CO)CCC2C3CCC4=CC(=O)C=CC4(C)C3C(=O)CC21C (centres undefined),2.43
11,C=CC(=O)OC,0.8
12,Cc1ccc(N=C=S)cc1,3.92
13,Nc1nc(N)nc(-c2ccccc2)n1,1.36
14,CN(C)CCN(C)C,0.3
15,c1ccc2c(c1)[nH]c1ccccc12,3.72
16,NC(=S)c1ccccn1,1.24
17,O=C(O)Cc1ccc(C(F)(F)F)cc1,2.45
18,COc1ccc(C(c2ccc(OC)cc2)C(C)[N+](=O)[O-])cc1 (centres undefined),3.87
19,CC1(O)CCC2C3CCC4=CC(=O)CCC4(C)C3(F)C(O)CC21C (centres undefined),2.38
20,CC1(C)CCCC(C)(C)N1,2.15
21,CCC(C)N(CC(O)COc1ccccc1)CC(O)COc1ccccc1 (centres undefined),3.46
22,O=[N+]([O-])c1ccc(O)c2ncccc12,1.99
23,O=C(C(F)(F)F)C(F)(F)F,1.46
24,Nc1ccc(OC(=O)c2ccc(N)cc2O)cc1,2.04

row,SMILES,logP
1,Cn1cnc([N+](=O)[O-])n1,-0.68
2,OC(c1ccccc1)(C(F)(F)F)C(F)(F)F,3.41
3,CC(=O)Nc1ncccn1,-0.75
4,Cc1cc(NC(N)=O)ccc1Br,2.49
5,CC(=O)c1ccnc2cc(Cl)ccc12,2.62
6,CC(=O)OCC(=O)[C@@]1(O)CC[C@H]2[C@@H]3CCC4=CC(=O)C=C[C@]4(C)[C@H]3[C@@H](O)C[C@@]21C,2.4
7,O=C(O)CCCCCCc1ccccc1,3.63
8,Cc1ccccc1N(C)C,2.85
9,Cc1cccc(C)c1NC(=O)C1CNCCN1 (centres undefined),0.38
10,Cc1nc([N+](=O)[O-])cn1CCO,-0.59
11,COc1ccc(I)cc1Cc1cnc(N)nc1N,2.7
12,O=C1NC(=S)NC(=O)C1C(=O)Nc1ccccc1,0.14
13,O=[N+]([O-])c1cnc(NC(CO)C(O)CO)cn1 (centres undefined),-0.89
14,CC1=C(O)OC2CC(C)C3C=CC(=O)C3(C)C(O)C12 (centres undefined),1.13
15,COc1cc(Cl)c(Cl)cc1O,3.26
16,CC[C@H](C)[C@H](NC(C)=O)C(=O)N[C@@H](CC(N)=O)C(N)=O (Ac-Ile-Asn-NH2),-1.41
17,Nc1ccc2ncccc2c1,1.28
18,O=C(Nc1ccc(Br)cc1)C(F)(F)F,3.34
19,COC(=O)CCc1ccccc1,2.32
20,CC(=O)Oc1cccc(F)c1,1.74
